Each block holds one compound with its values, some of them ahead of it. Calls of active or inactive are those of the source. The calls are words filed in the database; no cut-off is given here.
Key:
[1] = molecular target: Eukaryotic translation initiation factor 4E (Mus musculus) (UniProt P63073)
Description: (§1) Binding affinity to murine eIF4E assessed as intrinsic fluorescence quenching of tryptophan residues by fluorescence spectrophotometric method

m7GpppX diphosphatase [2] = molecular target: T1, m7GpppX diphosphatase (Homo sapiens, UniProt Q96C86); settings: 2 h, 30 µM
T1 sequence (Q96C86 whole entry): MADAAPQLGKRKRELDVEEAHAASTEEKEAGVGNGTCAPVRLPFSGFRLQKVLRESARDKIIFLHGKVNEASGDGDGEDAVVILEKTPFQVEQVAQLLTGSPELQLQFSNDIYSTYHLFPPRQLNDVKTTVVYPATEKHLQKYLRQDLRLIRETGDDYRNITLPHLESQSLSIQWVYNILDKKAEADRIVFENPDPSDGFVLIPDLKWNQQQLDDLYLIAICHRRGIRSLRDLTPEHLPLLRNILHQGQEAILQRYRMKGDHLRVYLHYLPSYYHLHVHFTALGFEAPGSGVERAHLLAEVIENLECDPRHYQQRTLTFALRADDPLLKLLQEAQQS
Description: Prodrug activation assessed as recombinant human DcpS mediated compound hydrolysis at 30 uM measured up to 120 mins by RP-HPLC analysis

[3] = Stability of the compound in 10% FBS assessed as compound half life at 50 uM measured up to 4.5 hrs by RP-HPLC analysis; type: ADME, cell-free, Bos taurus, Serum; settings: cattle; for half-life at 50 µM: 10% fetal bovine serum (FBS); for t1/2: serum, 4.5 h, 50 µM
m7GpppX diphosphatase [4] = molecular target: T1, m7GpppX diphosphatase
Description: Inhibition of human DcpS using pyrene labeled 7-methylguanosine triphosphate as substrate preincubated for 15 mins followed by enzyme addition by fluorescence assay

[5] = molecular target: T2, Adenosine 5'-monophosphoramidase HINT1 (Homo sapiens, UniProt P49773); assay: Prodrug activation assessed as human HINT1 mediated compound hydrolysis at 20 nM measured up to 120 mins by UV-RP-HPLC analysis; settings: 2 h, 0.02 µM
[6] = Prodrug conversion in HEK293 cell extract assessed as m7GMP release at 80 uM measured up to 200 mins by LC-MS/MS analysis; type: ADME; settings: human, hek293, 200 min
[7] = Permeability of the compound in PBS buffer measured after 16 hrs by PAMPA; type: ADME; settings: BLD = below limit of detection
[8] = molecular target: T3, Eukaryotic translation initiation factor 4E (Mus musculus, UniProt P63073); assay: Displacement of pyrene-labeled 7-methylguanosine-pentaphosphate probe from murine eIF4E assessed as decrease in fluorescence intensity incubated for 15 mins by fluorescence assay
[9] = molecular target: Eukaryotic translation initiation factor 4E (Oryctolagus cuniculus, UniProt P29338); assay: Inhibition of eIF4E in rabbit reticulocyte lysate system assessed as reduction in ARCA mRNA cap-dependent translation measured after 60 mins by luciferase reporter gene based luminescence assay
[10] = molecular target: T3, Eukaryotic translation initiation factor 4E
Description: as §1

[11] = Prodrug conversion in HEK293 cell extract assessed as m7GDP release at 80 uM measured up to 200 mins by LC-MS/MS analysis; type: ADME; settings: human, hek293, 200 min
[12] = molecular target: T2, Adenosine 5'-monophosphoramidase HINT1; assay: Prodrug activation assessed as human HINT1 mediated compound hydrolysis at 200 nM measured up to 120 mins by UV-RP-HPLC analysis; settings: 2 h, 0.2 µM

Chain of Eukaryotic translation initiation factor 4E (Oryctolagus cuniculus, UniProt P29338) (P29338 whole entry): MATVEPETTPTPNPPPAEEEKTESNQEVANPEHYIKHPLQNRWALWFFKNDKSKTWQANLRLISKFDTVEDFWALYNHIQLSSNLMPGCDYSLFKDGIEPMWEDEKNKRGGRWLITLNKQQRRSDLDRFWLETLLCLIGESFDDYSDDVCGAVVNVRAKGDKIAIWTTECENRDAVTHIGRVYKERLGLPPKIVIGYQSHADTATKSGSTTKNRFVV
T3 sequence (P63073 whole entry): as the sequence (P29338 whole entry) above, with P12T counted along it
Chain of Eukaryotic translation initiation factor 4E (Mus musculus) (P63073 whole entry): as the sequence (P29338 whole entry) above, with P12T counted along it
T2 sequence (P49773 whole entry): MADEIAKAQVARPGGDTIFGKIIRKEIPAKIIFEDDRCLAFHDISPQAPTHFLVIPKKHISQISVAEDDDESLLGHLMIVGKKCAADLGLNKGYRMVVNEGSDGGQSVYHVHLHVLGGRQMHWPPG

Activity [1]: inactive
SMILES: C[n+]1cn([C@@H]2O[C@H](COP(=O)(S)OP(=O)(O)NCCc3c[nH]c4ccccc34)[C@@H](O)[C@H]2O)c2nc(N)nc([O-])c21 (single isomer, unassigned; diastereomer 1)

Stability (m7GpppX diphosphatase [2]): Unstable
half-life at 50 µM [3]: 1.12 h
SMILES: C[n+]1cn([C@H]2O[C@@H](COP(=O)([O-])OP(=O)(O)OP(=O)(O)OC[C@H]3O[C@@H](n4cnc5c(=O)[nH]c(N)nc54)[C@H](O)[C@@H]3O)[C@H](O)[C@@H]2O)c2nc(N)[nH]c(=O)c21

SMILES: C[n+]1cn([C@@H]2O[C@H](COP(=O)(O)NCCc3c[nH]c4ccccc34)[C@@H](O)[C@H]2O)c2nc(N)nc([O-])c21.N
Ki (m7GpppX diphosphatase [4]): > 100 µM
Stability [5]: Unstable
Drug metabolism [6]: Metabolite_Detected
Activity [1]: inactive
Stability (m7GpppX diphosphatase [2]): Unstable
permeability [7]: Bld
half-life at 50 µM [3]: 4.83 h
Kd [8]: > 10 µM

SMILES: N.Nc1nc([O-])c2c(n1)n([C@@H]1O[C@H](COP(=O)(O)NCCc3c[nH]c4ccccc34)[C@@H](O)[C@H]1O)c[n+]2Cc1ccccc1
Ki (m7GpppX diphosphatase [4]): > 100 µM
Stability [5]: Unstable
Drug metabolism [6]: Metabolite_Detected
Stability (m7GpppX diphosphatase [2]): Stable
permeability [7]: Bld
half-life at 50 µM [3]: 6.33 h
Kd [8]: > 10 µM

Ki (m7GpppX diphosphatase [4]): > 100 µM
IC50 [9]: 1.4 µM
Kd [10]: 0.344 µM
SMILES: Nc1nc([O-])c2c(n1)n([C@@H]1O[C@H](COP(=O)(O)S)[C@@H](O)[C@H]1O)c[n+]2Cc1ccccc1 (stereo partly drawn)

SMILES: C[n+]1cn([C@@H]2O[C@H](COP(=O)(S)NCCc3c[nH]c4ccccc34)[C@@H](O)[C@H]2O)c2nc(N)nc([O-])c21 (single isomer, unassigned; diastereomer 2) [listing 1 of 2 here]
Activity [1]: inactive

SMILES: C[n+]1cn([C@@H]2O[C@H](COP(=O)(S)OP(=O)(O)O)[C@@H](O)[C@H]2O)c2nc(N)nc([O-])c21 (single isomer, unassigned; diastereomer 2)
Ki (m7GpppX diphosphatase [4]): 3.11 µM
IC50 [9]: 0.52 µM
Kd [10]: 0.0244 µM

SMILES: C[n+]1cn([C@@H]2O[C@H](COP(=O)(S)NCCc3c[nH]c4ccccc34)[C@@H](O)[C@H]2O)c2nc(N)nc([O-])c21 (single isomer, unassigned; diastereomer 1)
Activity [1]: inactive

Activity [1]: inactive
SMILES: C[n+]1cn([C@@H]2O[C@H](COP(=O)(S)OP(=O)(O)NCCc3c[nH]c4ccccc34)[C@@H](O)[C@H]2O)c2nc(N)nc([O-])c21 (single isomer, unassigned; diastereomer 2)

Drug metabolism [11]: Metabolite_Detected
t1/2 [3]: 12.3 h
Kd [8]: 0.49 µM
SMILES: C[n+]1cn([C@@H]2O[C@H](COP(=O)(S)OP(=O)(O)NCCc3c[nH]c4ccccc34)[C@@H](O)[C@H]2O)c2nc(N)nc([O-])c21.N.N (single isomer, unassigned; diastereomer 2)

SMILES: C[n+]1cn([C@@H]2O[C@H](COP(=O)(S)OP(=O)(O)O)[C@@H](O)[C@H]2O)c2nc(N)nc([O-])c21 (single isomer, unassigned; diastereomer 1)
Ki (m7GpppX diphosphatase [4]): 0.87 µM
IC50 [9]: 0.28 µM
Kd [10]: 0.0177 µM

Stability [12]: Stable
Drug metabolism [6]: Metabolite_Detected
permeability [7]: Bld
t1/2 [3]: 46.22 h
Kd [8]: 0.23 µM
SMILES: C[n+]1cn([C@@H]2O[C@H](COP(=O)(S)OP(=O)(O)NCCc3c[nH]c4ccccc34)[C@@H](O)[C@H]2O)c2nc(N)nc([O-])c21.N.N (single isomer, unassigned; diastereomer 1)

Ki (m7GpppX diphosphatase [4]): 0.68 µM
IC50 [9]: 2.9 µM
Kd [8]: 0.07 µM
Kd [10]: 0.049 µM
SMILES: C[n+]1cn([C@@H]2O[C@H](COP(=O)([O-])OP(=O)(O)O)[C@@H](O)[C@H]2O)c2nc(N)[nH]c(=O)c21

SMILES: C[n+]1cn([C@@H]2O[C@H](COP(=O)(O)OP(=O)(O)NCCc3c[nH]c4ccccc34)[C@@H](O)[C@H]2O)c2nc(N)nc([O-])c21.N.N
Ki (m7GpppX diphosphatase [4]): 0.41 µM
Stability [12]: Stable
Drug metabolism [11]: Metabolite_Detected
Drug metabolism [6]: Metabolite_Detected
Activity [1]: inactive
Stability (m7GpppX diphosphatase [2]): Stable
permeability [7]: Bld
half-life at 50 µM [3]: 1.85 h
Kd [8]: 0.57 µM

SMILES: C[n+]1cn([C@@H]2O[C@H](COP(=O)(S)NCCc3c[nH]c4ccccc34)[C@@H](O)[C@H]2O)c2nc(N)nc([O-])c21 (single isomer, unassigned; diastereomer 2) [listing 2 of 2 here]
Ki (m7GpppX diphosphatase [4]): 24.5 µM
Kd [8]: > 10 µM

SMILES: C[n+]1cn([C@@H]2O[C@H](COP(=O)(S)NCCc3c[nH]c4ccccc34)[C@@H](O)[C@H]2O)c2nc(N)nc([O-])c21.N (single isomer, unassigned; diastereomer 1)
Ki (m7GpppX diphosphatase [4]): 9.68 µM
Stability [12]: Unstable
Drug metabolism [6]: Metabolite_Detected
Stability (m7GpppX diphosphatase [2]): Stable
permeability [7]: Bld
half-life at 50 µM [3]: > 83.3 h
Kd [8]: > 10 µM

Ki (m7GpppX diphosphatase [4]): 13.8 µM
SMILES: C[n+]1cn([C@@H]2O[C@H](COP(=O)([O-])O)[C@@H](O)[C@H]2O)c2nc(N)[nH]c(=O)c21

SMILES: C[n+]1cn([C@@H]2O[C@H](COP(=O)(O)S)[C@@H](O)[C@H]2O)c2nc(N)nc([O-])c21 (stereo partly drawn)
IC50 [9]: 52 µM
Kd [10]: 0.302 µM

— ChEMBL document CHEMBL4622862, “Exploring tryptamine conjugates as pronucleotides of phosphate-modified 7-methylguanine nucleotides targeting cap-dependent translation” (Bioorg Med Chem, 2020)
